Test results: PMC8206283, “Three New Quinazoline-Containing Indole Alkaloids From the Marine-Derived Fungus Aspergillus sp. HNMF114” (Frontiers in Microbiology, 2021)

Target: T1, ryanodine receptor from Spodoptera frugiperda (sfRyR) (Spodoptera frugiperda, UniProt A0A4P8L6R5)
T1 construct: gene RyR
Experiment: time-lapse R-CEPIA1er [Ca2+]ER measurement in HEK cells stably expressing sfRyR (positive control)
Type: cell-based

T1 sequence (A0A4P8L6R5 entry or part of it): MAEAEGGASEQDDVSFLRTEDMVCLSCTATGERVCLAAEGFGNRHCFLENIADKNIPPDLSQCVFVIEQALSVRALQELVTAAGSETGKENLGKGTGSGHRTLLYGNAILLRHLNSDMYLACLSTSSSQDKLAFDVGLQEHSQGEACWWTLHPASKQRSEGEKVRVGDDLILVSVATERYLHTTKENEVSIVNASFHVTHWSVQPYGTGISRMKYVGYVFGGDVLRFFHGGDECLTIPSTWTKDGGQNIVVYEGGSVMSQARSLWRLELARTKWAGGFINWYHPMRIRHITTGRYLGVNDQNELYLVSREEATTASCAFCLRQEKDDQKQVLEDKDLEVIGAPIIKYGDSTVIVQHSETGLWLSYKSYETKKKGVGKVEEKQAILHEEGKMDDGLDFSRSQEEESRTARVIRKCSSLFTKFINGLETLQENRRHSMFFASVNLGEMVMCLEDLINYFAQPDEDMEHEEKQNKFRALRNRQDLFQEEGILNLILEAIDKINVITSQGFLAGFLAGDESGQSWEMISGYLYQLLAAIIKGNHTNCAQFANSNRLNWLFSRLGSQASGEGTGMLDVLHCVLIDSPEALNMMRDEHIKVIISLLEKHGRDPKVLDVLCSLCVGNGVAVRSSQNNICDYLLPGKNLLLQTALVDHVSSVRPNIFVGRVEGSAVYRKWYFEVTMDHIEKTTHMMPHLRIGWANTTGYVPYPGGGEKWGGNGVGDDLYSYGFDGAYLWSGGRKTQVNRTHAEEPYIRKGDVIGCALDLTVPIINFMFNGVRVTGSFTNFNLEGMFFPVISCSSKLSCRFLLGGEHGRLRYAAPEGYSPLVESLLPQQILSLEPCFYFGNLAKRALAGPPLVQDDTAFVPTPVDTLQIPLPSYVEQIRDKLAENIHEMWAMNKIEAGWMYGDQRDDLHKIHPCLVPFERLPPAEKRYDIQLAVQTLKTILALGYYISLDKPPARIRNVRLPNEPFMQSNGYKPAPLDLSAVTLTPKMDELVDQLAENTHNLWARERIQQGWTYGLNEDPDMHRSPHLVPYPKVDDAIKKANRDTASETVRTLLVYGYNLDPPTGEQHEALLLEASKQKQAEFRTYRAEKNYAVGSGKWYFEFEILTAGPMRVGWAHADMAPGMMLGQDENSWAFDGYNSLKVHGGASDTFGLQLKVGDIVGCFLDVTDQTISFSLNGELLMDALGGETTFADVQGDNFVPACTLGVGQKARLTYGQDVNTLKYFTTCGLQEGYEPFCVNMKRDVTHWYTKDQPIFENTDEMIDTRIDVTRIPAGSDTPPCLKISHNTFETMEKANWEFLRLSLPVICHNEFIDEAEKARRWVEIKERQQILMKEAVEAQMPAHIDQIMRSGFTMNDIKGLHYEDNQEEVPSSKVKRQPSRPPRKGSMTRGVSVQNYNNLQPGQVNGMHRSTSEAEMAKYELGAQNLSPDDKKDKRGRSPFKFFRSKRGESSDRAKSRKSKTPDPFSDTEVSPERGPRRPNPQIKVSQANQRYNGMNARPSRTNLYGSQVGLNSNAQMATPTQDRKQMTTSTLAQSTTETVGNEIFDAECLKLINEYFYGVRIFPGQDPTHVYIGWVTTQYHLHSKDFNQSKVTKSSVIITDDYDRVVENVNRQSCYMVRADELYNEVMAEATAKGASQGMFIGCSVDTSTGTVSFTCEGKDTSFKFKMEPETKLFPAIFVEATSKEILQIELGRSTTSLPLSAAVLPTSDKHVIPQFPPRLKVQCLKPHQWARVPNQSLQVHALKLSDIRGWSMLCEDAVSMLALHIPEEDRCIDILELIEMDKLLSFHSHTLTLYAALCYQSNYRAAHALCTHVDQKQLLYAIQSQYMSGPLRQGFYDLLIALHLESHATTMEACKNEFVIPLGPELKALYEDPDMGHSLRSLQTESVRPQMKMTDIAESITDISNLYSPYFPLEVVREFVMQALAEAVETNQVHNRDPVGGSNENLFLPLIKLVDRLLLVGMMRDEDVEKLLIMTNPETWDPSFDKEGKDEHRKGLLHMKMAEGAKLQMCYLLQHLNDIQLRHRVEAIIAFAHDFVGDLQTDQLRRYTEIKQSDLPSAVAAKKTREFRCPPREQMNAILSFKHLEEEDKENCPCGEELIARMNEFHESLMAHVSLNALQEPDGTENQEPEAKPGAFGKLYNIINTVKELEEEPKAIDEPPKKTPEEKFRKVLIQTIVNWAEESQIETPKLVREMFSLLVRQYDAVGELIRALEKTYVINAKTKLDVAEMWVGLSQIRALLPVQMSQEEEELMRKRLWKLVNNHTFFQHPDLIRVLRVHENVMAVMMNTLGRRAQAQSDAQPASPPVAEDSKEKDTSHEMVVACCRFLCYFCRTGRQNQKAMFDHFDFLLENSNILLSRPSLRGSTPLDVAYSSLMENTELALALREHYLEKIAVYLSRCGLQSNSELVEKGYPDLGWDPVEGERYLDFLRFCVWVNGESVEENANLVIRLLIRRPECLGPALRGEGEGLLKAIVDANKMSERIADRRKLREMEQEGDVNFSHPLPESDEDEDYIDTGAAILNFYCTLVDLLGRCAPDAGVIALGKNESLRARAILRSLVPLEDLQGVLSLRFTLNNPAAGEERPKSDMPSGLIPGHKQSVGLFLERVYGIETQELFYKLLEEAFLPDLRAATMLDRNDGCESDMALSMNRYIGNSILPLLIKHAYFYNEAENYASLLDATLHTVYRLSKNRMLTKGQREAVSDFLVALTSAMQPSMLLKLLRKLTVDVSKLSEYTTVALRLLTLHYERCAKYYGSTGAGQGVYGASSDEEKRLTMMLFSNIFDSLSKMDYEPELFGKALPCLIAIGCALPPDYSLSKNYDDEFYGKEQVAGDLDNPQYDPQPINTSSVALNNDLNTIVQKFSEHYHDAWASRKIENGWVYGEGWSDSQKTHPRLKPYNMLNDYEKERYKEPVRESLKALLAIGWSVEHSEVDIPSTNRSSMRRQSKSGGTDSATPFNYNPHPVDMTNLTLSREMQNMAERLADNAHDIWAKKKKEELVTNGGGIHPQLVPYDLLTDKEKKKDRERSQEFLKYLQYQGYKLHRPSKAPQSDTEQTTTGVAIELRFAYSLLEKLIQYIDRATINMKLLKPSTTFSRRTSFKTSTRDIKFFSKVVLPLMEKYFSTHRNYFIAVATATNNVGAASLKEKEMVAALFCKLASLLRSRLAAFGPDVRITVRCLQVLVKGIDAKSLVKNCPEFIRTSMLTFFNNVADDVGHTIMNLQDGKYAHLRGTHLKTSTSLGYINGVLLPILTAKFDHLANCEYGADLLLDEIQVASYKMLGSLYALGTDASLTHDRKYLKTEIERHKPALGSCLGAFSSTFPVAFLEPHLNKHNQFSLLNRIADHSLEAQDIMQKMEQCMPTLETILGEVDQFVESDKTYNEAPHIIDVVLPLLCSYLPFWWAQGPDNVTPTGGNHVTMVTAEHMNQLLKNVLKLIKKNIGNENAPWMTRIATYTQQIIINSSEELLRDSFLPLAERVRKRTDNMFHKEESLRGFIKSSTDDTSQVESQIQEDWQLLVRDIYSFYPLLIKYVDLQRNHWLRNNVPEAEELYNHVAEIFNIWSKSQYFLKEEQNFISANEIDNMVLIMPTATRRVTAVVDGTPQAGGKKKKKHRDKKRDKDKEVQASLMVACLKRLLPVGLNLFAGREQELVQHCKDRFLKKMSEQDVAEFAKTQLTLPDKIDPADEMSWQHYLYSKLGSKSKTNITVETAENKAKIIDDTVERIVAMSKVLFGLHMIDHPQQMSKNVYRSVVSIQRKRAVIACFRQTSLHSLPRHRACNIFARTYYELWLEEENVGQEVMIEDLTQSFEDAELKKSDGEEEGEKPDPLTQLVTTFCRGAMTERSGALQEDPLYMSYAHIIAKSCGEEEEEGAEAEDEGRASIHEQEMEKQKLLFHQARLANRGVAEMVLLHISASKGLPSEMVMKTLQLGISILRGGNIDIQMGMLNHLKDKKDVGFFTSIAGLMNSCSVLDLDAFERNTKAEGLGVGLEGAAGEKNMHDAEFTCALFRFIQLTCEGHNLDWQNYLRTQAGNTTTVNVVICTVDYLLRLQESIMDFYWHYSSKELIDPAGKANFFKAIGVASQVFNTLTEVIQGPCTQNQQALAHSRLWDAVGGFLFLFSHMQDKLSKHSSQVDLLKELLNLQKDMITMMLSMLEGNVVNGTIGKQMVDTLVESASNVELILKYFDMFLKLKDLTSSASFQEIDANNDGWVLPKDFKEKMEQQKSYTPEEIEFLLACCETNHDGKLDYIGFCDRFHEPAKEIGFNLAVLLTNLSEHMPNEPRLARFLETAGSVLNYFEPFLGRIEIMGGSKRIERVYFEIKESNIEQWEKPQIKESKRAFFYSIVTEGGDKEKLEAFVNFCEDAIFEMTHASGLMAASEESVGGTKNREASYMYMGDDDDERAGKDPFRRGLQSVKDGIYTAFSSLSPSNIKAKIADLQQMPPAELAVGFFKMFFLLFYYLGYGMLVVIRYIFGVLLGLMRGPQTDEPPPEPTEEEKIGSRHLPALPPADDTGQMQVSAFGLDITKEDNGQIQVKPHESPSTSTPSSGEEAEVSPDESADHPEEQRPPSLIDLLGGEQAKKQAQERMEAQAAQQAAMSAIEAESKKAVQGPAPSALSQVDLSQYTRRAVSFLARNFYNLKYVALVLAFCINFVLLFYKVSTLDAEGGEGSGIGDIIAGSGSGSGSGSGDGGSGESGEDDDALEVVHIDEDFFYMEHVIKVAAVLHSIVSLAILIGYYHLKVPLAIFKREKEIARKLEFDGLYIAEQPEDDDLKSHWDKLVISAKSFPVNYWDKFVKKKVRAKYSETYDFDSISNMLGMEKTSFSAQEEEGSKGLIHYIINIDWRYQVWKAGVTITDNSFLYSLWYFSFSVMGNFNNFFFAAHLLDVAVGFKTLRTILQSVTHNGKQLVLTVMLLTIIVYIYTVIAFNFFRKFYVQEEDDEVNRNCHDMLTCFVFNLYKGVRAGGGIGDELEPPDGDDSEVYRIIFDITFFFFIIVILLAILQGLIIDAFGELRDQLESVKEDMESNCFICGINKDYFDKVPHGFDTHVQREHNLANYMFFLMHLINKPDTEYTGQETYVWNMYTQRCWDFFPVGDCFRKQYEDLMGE

## CNC(=O)c1cc(Cl)cc(C)c1NC(=O)c1cc(Br)nn1-c1ncccc1Cl [chlo, chlorantraniliprole]
  time-lapse R-CEPIA1er [Ca2+]ER measurement in HEK cells stably expressing sfRyR: their effect in intracellular Ca2 release is similar to that of the positive control chlo
